According to paper PMC11940194, “Synthesis, Antiproliferative Activity, and ADME Profiling of Novel Racemic and Optically Pure Aryl-Substituted Purines and Purine Bioisosteres” (Biomolecules, 2025):

Key:
Type in all cases: cell-based, human
[1] = system: colorectal carcinoma (HT-29) cells; assay: Antiproliferative MTT assay, HT-29; settings: for IC50: 72 h incubation, MTT, mean ± SD; for SI (HT-29): SI = [IC50 HFF]/[IC50 HT-29]
Protocol: (§1) The human ATCC tumor cell lines breast adenocarcinoma (MCF7), colorectal carcinoma (HT-29), pancreatic ductal adenocarcinoma (CFPAC-1), hepatocellular carcinoma (HepG2), and normal skin fibroblasts (HFF) derived from ATCC (American Type Culture Collection) were cultured in Dulbecco’s Modified Eagle Medium (DMEM) or Minimum Essential Medium (MEM) supplemented with 10% fetal bovine serum (FBS), 2 mM L-glutamine, 100 U/mL penicillin, and 100 µg/mL streptomycin (Lonza, Basel, Switzerland) in a humidified atmosphere with 5% CO2 at 37 °C. For the experiment, carcinoma cell lines and normal human cell lines were seeded in 96-well microtiter plates at a density of 3000 cells per well and 5000 cells per well, respectively, depending on the doubling time of the specific cell line. The test substances were then added at fivefold, tenfold dilutions (0.01 to 100 µM), freshly prepared in the growth medium on the day of testing, and incubated for a further 72 h. After 72 h of incubation, the growth rate of the cells was determined using the MTT assay according to the manufacturer’s guidelines. […] The IC50 values were calculated from the dose–response curves using linear regression analysis. The experiment was performed in tetraplicates in two individual experiments.
(§2) Newly synthesized compounds were evaluated for their cytotoxic activity in vitro against four human cancer cell lines, including human breast adenocarcinoma (MCF-7), ductal pancreatic adenocarcinoma (CFPAC-1), colorectal carcinoma (HT-29), and hepatocellular carcinoma (HepG2), as well as on non-cancerous skin fibroblasts (HFF-1), to check for non-specific toxicity. Furthermore, 5-Fluorouracil (5-FU) was used as a reference drug. The results are expressed as 50% inhibitory concentration (IC50) values and are listed in Table 2, Table 3, Table 4 and Table 5.

[2] = system: hepatocellular carcinoma (HepG2) cells; assay: Antiproliferative MTT assay, HepG2; settings: for IC50: Homo sapiens, HepG2, 72 h, 72 h incubation, MTT, mean ± SD; for SI (HepG2): SI = [IC50 HFF]/[IC50 HepG2]
Protocol: as §1, §2

[3] = system: pancreatic ductal adenocarcinoma (CFPAC-1) cells; assay: Antiproliferative MTT assay, CFPAC-1; settings: for IC50: 72 h incubation, MTT, mean ± SD; for SI (CFPAC-1): SI = [IC50 HFF]/[IC50 CFPAC-1]
Protocol: as §1, §2

[4] = system: normal skin fibroblasts (HFF-1); assay: Cytotoxicity MTT assay, normal skin fibroblasts; settings: 72 h incubation, mean ± SD
Protocol: as §1, §2

[5] = system: breast adenocarcinoma (MCF7) cells; assay: Antiproliferative MTT assay, MCF-7; settings: for IC50: Homo sapiens, MCF7, 72 h incubation, MTT, mean ± SD; for SI (MCF-7): SI = [IC50 HFF]/[IC50 MCF-7]
Protocol: as §1, §2

| SMILES | IC50 ([1]; Homo sapiens, HT-29, 72 h) [µM] | IC50 [2] [µM] | IC50 ([3]; Homo sapiens, CFPAC-1, 72 h) [µM] | IC50 [5] [µM] | IC50 [1] [µM] | IC50 [3] [µM] | SI (CFPAC-1) [3] | IC50 ([4]; Homo sapiens, HFF-1, 72 h) [µM] | SI (MCF-7) [5] | SI (HT-29) [1] | SI (HepG2) [2] | IC50 [4] [µM] |
| --- | --- | --- | --- | --- | --- | --- | --- | --- | --- | --- | --- | --- |
| OC(Cn1cc(Cn2ccc3c(Cl)ncnc32)nn1)c1ccc(F)cc1 (stereo not drawn) [Compound 42b, 4-Chloro-7-((1-(2-hydroxy-2-(4-fluorophenyl)ethyl)-1H-1,2,3-triazol-4-yl)methyl)-7H-pyrrolo[2,3-d]pyrimidine] | 49 ± 14.6 | 38 ± 11 | 34 ± 3.2 | 45 ± 5.7 | – | – | 1.5 | 51 ± 3.6 | 1.1 | – | – | – |
| OC(Cn1cc(Cn2ccc3c(Cl)ncnc32)nn1)c1ccc(Cl)cc1 (stereo not drawn) [Compound 43b, 4-Chloro-7-((1-(2-hydroxy-2-(4-chlorophenyl)ethyl)-1H-1,2,3-triazol-4-yl)methyl)-7H-pyrrolo[2,3-d]pyrimidine] | 28 ± 3.8 | 46 ± 2.2 | 48 ± 4.9 | 39 ± 10.1 | – | – | 0.7 | 32 ± 14.1 | 0.8 | – | – | – |
| O=c1[nH]cc(F)c(=O)[nH]1 [Compound 5-FU, 5-Fluorouracil, reference compound] | 0.23 | 9 ± 1.3 | 0.14 ± 0.1 | 1 ± 0.8 | 0.2 | 0.1 ± 0.1 | – | 0.94 | 0.9 | 4.5 | 0.1 | 0.9 |
| OC(Cn1cc(Cn2ccc3ccccc32)nn1)c1ccc(Cl)cc1 (stereo not drawn) [Compound 28b, 1-((1-(2-Hydroxy-2-(4-chlorophenyl)ethyl)-1H-1,2,3-triazol-4-yl)methyl)-1H-indol] | 46 ± 18.4 | 66 ± 2.7 | 35 ± 19.8 | 35 ± 16.2 | – | – | >2.9 | > 100 | – | – | – | – |
| OC(Cn1cc(Cn2cnc3c(Cl)ncnc32)nn1)c1ccc(Cl)cc1 (stereo not drawn) [Compound 38b, 6-Chloro-9-((1-(2-hydroxy-2-(4-chlorophenyl)ethyl)-1H-1,2,3-triazol-4-yl)methyl)-9H-purine] | 56 ± 2.8 | 49 ± 13.3 | 36 ± 8.2 | 51 ± 8.9 | – | – | – | 31 ± 5.3 | – | 0.6 | 0.6 | – |
| OCC(c1ccc(Cl)cc1)n1cc(Cn2ccc3c(Cl)ncnc32)nn1 (stereo not drawn) [Compound 43a, 4-Chloro-7-((1-(2-hydroxy-1-(4-chlorophenyl)ethyl)-1H-1,2,3-triazol-4-yl)methyl)-7H-pyrrolo[2,3-d]pyrimidine] | 33 ± 6.1 | 33 ± 4.2 | – | 24 ± 8.8 | – | – | 5.1 | 41 ± 16.3 | 1.7 | – | – | – |
| OCC(c1ccccc1)n1cc(Cn2cnc3c(Cl)ncnc32)nn1 (stereo not drawn) [Compound 36a, 6-Chloro-9-((1-(2-hydroxy-1-phenylethyl)-1H-1,2,3-triazol-4-yl)methyl)-9H-purine] | 54 ± 7.4 | 55 ± 2.4 | 60 ± 0.9 | 53 ± 5.5 | – | – | – | > 100 | – | >1.9 | >1.8 | – |
| OC(Cn1cc(Cn2ccc3ccccc32)nn1)c1ccc(C(F)(F)F)cc1 (stereo not drawn) [Compound 30b, 1-((1-(2-Hydroxy-2-(4-(trifluoromethyl)phenyl)ethyl)-1H-1,2,3-triazol-4-yl)methyl)-1H-indol] | 51 ± 15.3 | 65 ± 2.4 | 27 ± 0.7 | 22 ± 3.4 | – | – | 0.7 | 18 ± 0.6 | – | – | – | – |
| OC(Cn1cc(Cn2cnc3c(Cl)ncnc32)nn1)c1ccccc1 (stereo not drawn) [Compound 36b, 6-Chloro-9-((1-(2-hydroxy-2-phenylethyl)-1H-1,2,3-triazol-4-yl)methyl)-9H-purine] | 61 ± 2.4 | 41 ± 10.6 | 65 ± 18.9 | 69 ± 10.6 | – | – | – | 80 ± 14 | – | 1.3 | 1.9 | – |
| O[C@H](Cn1cc(Cn2ccc3c(Cl)ncnc32)nn1)c1ccc(C(F)(F)F)cc1 [Compound (S)-45b, (S)-4-Chloro-7-((1-(2-hydroxy-2-(4-(trifluoromethyl)phenyl)ethyl)-1H-1,2,3-triazol-4-yl)methyl)-7H-pyrrolo[2,3-d]pyrimidin] | 31 ± 2.2 | 23 ± 2.3 | 43 ± 10.8 | 26 ± 8.5 | – | – | 1.0 | 43 ± 3.9 | 1.7 | – | – | – |
| OC(Cn1cc(Cn2cnc3ccccc32)nn1)c1ccc(F)cc1 (stereo not drawn) [Compound 32b, 1-((1-(2-Hydroxy-2-(4-fluorphenyl)ethyl)-1H-1,2,3-triazol-4-yl)methyl)-1H-benzimidazole] | > 100 | > 100 | > 100 | > 100 | – | – | – | > 100 | – | – | – | – |
| O[C@@H](Cn1cc(Cn2ccc3c(Cl)ncnc32)nn1)c1ccc(C(F)(F)F)cc1 [Compound (R)-45b, (R)-4-Chloro-7-((1-(2-hydroxy-2-(4-(trifluoromethyl)phenyl)ethyl)-1H-1,2,3-triazol-4-yl)methyl)-7H-pyrrolo[2,3-d]pyrimidin] | 45 ± 4 | 38 ± 7.6 | 49 ± 8.7 | 43 ± 4.6 | – | – | 0.4 | 21 ± 3.8 | 0.5 | – | – | – |
| OCC(c1ccc(Cl)cc1)n1cc(Cn2ccc3ccccc32)nn1 (stereo not drawn) [Compound 28a, 1-((1-(2-Hydroxy-1-(4-chlorophenyl)ethyl)-1H-1,2,3-triazol-4-yl)methyl)-1H-indole] | 31 ± 0.9 | 32 ± 0.2 | 30 ± 0.6 | 32 | – | – | 1.4 | 42 ± 4.6 | – | – | – | – |
| O[C@H](Cn1cc(Cn2ccc3c(Cl)ncnc32)nn1)c1ccccc1 [Compound (S)-41b, (S)-4-Chloro-7-((1-(2-hydroxy-2-phenylethyl)-1H-1,2,3-triazol-4-yl)methyl)-7H-pyrrolo[2,3-d]pyrimidine] | 41 ± 5.6 | 41 ± 12.4 | 49 ± 18.5 | 45 ± 7.2 | – | – | 1.2 | 58 ± 3.1 | 1.3 | – | – | – |

Further lines, with some results ahead:

| IC50 ([1]; Homo sapiens, HT-29, 72 h) [µM] | IC50 [2] [µM] | IC50 ([3]; Homo sapiens, CFPAC-1, 72 h) [µM] | IC50 [5] [µM] | IC50 [1] [µM] | IC50 [3] [µM] | SMILES | SI (CFPAC-1) [3] | IC50 ([4]; Homo sapiens, HFF-1, 72 h) [µM] | SI (MCF-7) [5] | SI (HT-29) [1] | SI (HepG2) [2] | IC50 [4] [µM] |
| --- | --- | --- | --- | --- | --- | --- | --- | --- | --- | --- | --- | --- |
| 50 ± 1.3 | 50 ± 10.2 | 49 ± 11.3 | 44 ± 17.4 | – | – | OC(Cn1cc(Cn2ccc3c(Cl)ncnc32)nn1)c1ccccc1 (stereo not drawn) [Compound 41b, 4-Chloro-7-((1-(2-hydroxy-2-phenylethyl)-1H-1,2,3-triazol-4-yl)methyl)-7H-pyrrolo[2,3-d]pyrimidine] | 0.9 | 44 ± 14.1 | 1.0 | – | – | – |
| 28 ± 1.9 | 32 ± 3.6 | 9 ± 3.3 | 21 ± 1.6 | – | – | OCC(c1ccc(C(F)(F)F)cc1)n1cc(Cn2ccc3ccccc32)nn1 (stereo not drawn) [Compound 30a, 1-((1-(2-Hydroxy-1-(4-(trifluoromethyl)phenyl)ethyl)-1H-1,2,3-triazol-4-yl)methyl)-1H-indole] | 3.7 | 34 ± 1.6 | – | – | – | – |
| > 100 | > 100 | > 100 | > 100 | – | – | OC(Cn1cc(Cn2cnc3c(Cl)nccc32)nn1)c1ccc(Cl)cc1 (stereo not drawn) [Compound 48b, 4-Chloro-1-((1-(2-hydroxy-2-(4-chlorophenyl)ethyl)-1H-1,2,3-triazol-4-yl)methyl)-1H-imidazo[4,5-c]pyridine] | – | > 100 | – | – | – | – |
| 33 ± 0.2 | 49 ± 2 | 13 ± 2.7 | 41 | – | – | O[C@H](Cn1cc(Cn2ccc3c(Cl)ncnc32)nn1)c1ccc(F)cc1 [Compound (S)-42b, (S)-4-Chloro-7-((1-(2-hydroxy-2-(4-fluorophenyl)ethyl)-1H-1,2,3-triazol-4-yl)methyl)-7H-pyrrolo[2,3-d]pyrimidine] | 5.6 | 73 ± 2.4 | 1.8 | – | – | – |
| 24 ± 2.9 | 45 ± 1.9 | 65 ± 5.4 | 73 ± 2.9 | – | – | O[C@H](Cn1cc(Cn2cnc3c(Cl)ncnc32)nn1)c1ccc(F)cc1 [Compound (S)-37b, (S)-6-Chloro-9-((1-(2-hydroxy-2-(4-fluorophenyl)ethyl)-1H-1,2,3-triazol-4-yl)methyl)-9H-purine] | – | 70 ± 19.5 | – | 2.9 | 1.6 | – |
| 47 ± 16.8 | 28 ± 7.5 | 51 ± 11.7 | 58 ± 1.9 | – | – | O[C@H](Cn1cc(Cn2cnc3c(Cl)ncnc32)nn1)c1ccc(Cl)cc1 [Compound (S)-38b] | – | 81 ± 1.8 | – | 1.7 | 2.9 | – |
